# Source: patent US20250367114A1, “INHALABLE COMPOSITION FOR ENHANCING ALERTNESS AND VITALITY AND DEVICE FOR SUPPLYING THE INHALABLE COMPOSITION” (KT&G CORPORATION, priority 2024, published 2025)
# Test system: C57BL/6 mice
# Test: general behavioral experiments (LABORAS) after oral administration of caffeine
# Type: in vivo
# Conditions: for Distance (distance of movement) / Number of times (number of movements) / Speed (speed of movement) / Time (time of movement): measured for an hour
# Description: The experimental animals were C57BL/6 mice (male, 10 weeks old) purchased from KOATECH after receiving approval from the Institutional Animal Care and Use Committee (IACUC). The experimental animals were acclimatized for a week in the breeding room of the bio-efficacy evaluation center of KT&G (temperature 23±2° C., humidity 50±10%, light-dark cycle 12 hours) and then used in the experiments.
# Caffeine was dissolved in a 0.9% saline solution and administered orally to the mice by using Zonde at a dosage of 10 ml/kg, and then general behavioral experiments were conducted. Samples of experimental examples 1 to 3 below were orally administered to the C57BL/6 mice, and then the number of movements, the speed of movement (mm/s), the distance of movement (meter), and the time of movement (sec) for an hour were measured using a LABORAS behavioral device.
# Experimental example 1 was a control group, in which only 10 ml/kg of a 0.9% saline solution was orally administered. In experimental example 2, caffeine was dissolved in a 0.9% saline solution at a dose of 5 mg/kg and orally administered by using Zonde. In experimental example 3, caffeine was dissolved in a 0.9% saline solution at a dose of 30 mg/kg and orally administered by using Zonde. With respect to each of experimental examples 1 to 3, the alertness effect of caffeine was verified through general behavioral experiments, and results thereof are shown in Table 1 below.
# [1] = caffeine 5 mg/kg oral in 0.9% saline
# [2] = caffeine 30 mg/kg oral in 0.9% saline
smiles,measurement,setting,value
"Cn1c(=O)c2c(ncn2C)n(C)c1=O [Experimental example 2, caffeine]",alertness effect (in words),caffeine 5 mg/kg oral,almost no effect
same,Distance (distance of movement),[1],20.48 ± 3.27 meter
same,Number of times (number of movements),[1],532.5 ± 66.33 count
same,Speed (speed of movement),[1],5.689 ± 0.91 mm/s
same,Time (time of movement),[1],405.65 ± 21.89 s
same,alertness effect (in words),caffeine 30 mg/kg oral,alertness effect was observed
same,Distance (distance of movement),[2],33.59 ± 7.85 meter
same,Number of times (number of movements),[2],1034.5 ± 220.05 count
same,Speed (speed of movement),[2],9.33 ± 2.18 mm/s
same,Time (time of movement),[2],884.15 ± 154.86 s
